The text below walks through data of ChEMBL document CHEMBL4725437, “P450s under Restriction (PURE) Screen Using HepaRG and Primary Human Hepatocytes for Discovery of Novel HBV Antivirals” (ACS Med Chem Lett, 2020).

For orientation: inhibition means the drop in the measured response relative to a control, in per cent.

In one series the test system is Hepatocyte. Nature of the series: Cytotoxicity against human primary hepatocytes infected with HBV assessed as reduction in cell viability at 10 mM treated for 1 hr on day 5 post-infection followed by removal of media and supplemented with fresh media and further incubated for 3 days then followed by treatment for 1 hr on day 8 post-infection followed by removal of media and supplemented with fresh media and further incubated for 3 days in presence of 50 uM SKF-525A and measured on day 11 post-infection by Celltiter-Glo assay relative to control. The class given is cell-based. (Cellular ATP, detected with luciferase, serves as a proxy for viable cell number.)

Series [1] deals with T1, CYP1A2 (Homo sapiens, UniProt P05177).
T1 sequence (P05177 whole entry): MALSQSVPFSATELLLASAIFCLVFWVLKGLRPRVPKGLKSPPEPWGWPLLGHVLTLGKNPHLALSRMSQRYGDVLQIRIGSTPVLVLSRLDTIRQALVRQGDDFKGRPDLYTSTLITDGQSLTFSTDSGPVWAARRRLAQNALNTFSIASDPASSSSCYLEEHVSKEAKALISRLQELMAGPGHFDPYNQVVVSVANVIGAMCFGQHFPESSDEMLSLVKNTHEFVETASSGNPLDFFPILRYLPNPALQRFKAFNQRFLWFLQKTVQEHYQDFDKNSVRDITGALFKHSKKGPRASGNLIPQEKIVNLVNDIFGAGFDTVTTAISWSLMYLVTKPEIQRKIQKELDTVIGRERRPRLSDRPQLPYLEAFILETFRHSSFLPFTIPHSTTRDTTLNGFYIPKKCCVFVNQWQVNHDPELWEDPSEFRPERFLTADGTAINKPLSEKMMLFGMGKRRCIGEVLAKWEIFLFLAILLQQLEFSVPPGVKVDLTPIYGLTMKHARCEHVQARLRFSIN
Briefly: Inhibition of CYP1A2 in HBV-infected human HepaRG cells at 10 mM using luciferin-1A2 as substrate treated for 1 hr on day 5 post-infection followed by removal of media and supplemented with fresh media and further incubated for 3 days then followed by treatment for 1 hr on day 8 post-infection followed by removal of media and supplemented with fresh media and further incubated for 3 days in presence of 50 uM SKF-525A and measured on day 11 post-infection by P450-Glo chemiluminescent assay relative to control. The conditions noted are these: probe luciferin-1A2, with SKF-525A 50 uM. The format is ADME, tissue-based.

The test system of series [2] is Hepatitis B virus. Nature of the series: Antiviral activity against Hepatitis B virus infected in human primary hepatocytes assessed as reduction in HbsAg secretion level at 10 mM treated for 1 hr on day 5 post-infection followed by removal of media and supplemented with fresh media and further incubated for 3 days then followed by treatment for 1 hr on day 8 post-infection followed by removal of media and supplemented with fresh media and further incubated for 3 days in presence of 25 uM SKF-525A and measured on day 11 post-infection by chemiluminescence immunostaining assay. The class given is functional, Primary hepatocyte. Further details: scale not given: the % may be the effect or the level left; call rule not given here.

The next series has as its target T2, Cytochrome P450 1A2 (Homo sapiens, UniProt P05177).
T2 sequence (P05177 whole entry): T1 sequence (P05177 whole entry)
Briefly: Inhibition of CYP1A2 in HBV-infected human primary hepatocytes at 0.2 to 20 mM using luciferin-1A2 as substrate treated for 1 hr on day 5 post-infection followed by removal of media and supplemented with fresh media and further incubated for 3 days then followed by treatment for 1 hr on day 8 post-infection followed by removal of media and supplemented with fresh media and further incubated for 3 days and measured on day 11 post-infection by P450-Glo chemiluminescent assay. The class given is ADME, tissue-based. The conditions noted are these: heparg, 20000 µM, dose 0.2-20 mM.

Series [3] addresses T3, CYP2C9 (Homo sapiens, UniProt P11712). Briefly: Inhibition of CYP2C9 in HBV-infected human HepaRG cells at 10 mM using luciferin-H as substrate treated for 1 hr on day 5 post-infection followed by removal of media and supplemented with fresh media and further incubated for 3 days in presence of 50 uM SKF-525A by P450-Glo chemiluminescent assay relative to control. The class given is ADME, tissue-based. The conditions noted are these: probe luciferin-H, with SKF-525A 50 uM.

The target of series [4] is T1, CYP1A2. Briefly: Inhibition of CYP1A2 in HBV-infected human HepaRG cells at 50 uM using luciferin-1A2 as substrate treated for 1 hr on day 5 post-infection followed by removal of media and supplemented with fresh media and further incubated for 3 days then followed by treatment for 1 hr on day 8 post-infection followed by removal of media and supplemented with fresh media and further incubated for 3 days and measured on day 11 post-infection by P450-Glo chemiluminescent assay relative to control. The format is ADME, tissue-based. The conditions noted are these: probe luciferin-1A2.

For series [5], the target named is T1, CYP1A2. Nature of the series: Inhibition of CYP1A2 in HBV-infected human HepaRG cells at 50 uM using luciferin-1A2 as substrate treated for 1 hr on day 5 post-infection followed by removal of media and supplemented with fresh media and further incubated for 3 days then followed by treatment for 1 hr on day 8 post-infection followed by removal of media and supplemented with fresh media and further incubated for 3 days in presence of 10 mM ABT and measured on day 11 post-infection by P450-Glo chemiluminescent assay relative to control. The format is ADME, tissue-based. The conditions noted are these: probe luciferin-1A2, with ABT 10 mM.

For series [6], the system named is Hepatitis B virus. Briefly: Antiviral activity against Hepatitis B virus infected in human primary hepatocytes assessed as reduction in HbsAg secretion level at 25 uM treated for 1 hr on day 5 post-infection followed by removal of media and supplemented with fresh media and further incubated for 3 days then followed by treatment for 1 hr on day 8 post-infection followed by removal of media and supplemented with fresh media and further incubated for 3 days in presence of 10 mM ABT and measured on day 11 post-infection by chemiluminescence immunostaining assay. The format is functional, Primary hepatocyte. Further details: scale not given: the % may be the effect or the level left.

Another series deals with Cytochrome P450 3A4 (Homo sapiens, UniProt P08684). Briefly: Inhibition of CYP3A4 in HBV-infected human primary hepatocytes at 5 to 100 uM using luciferin-IPA as substrate treated for 1 hr on day 5 post-infection followed by removal of media and supplemented with fresh media and further incubated for 3 days then followed by treatment for 1 hr on day 8 post-infection followed by removal of media and supplemented with fresh media and further incubated for 3 days and measured on day 11 post-infection by P450-Glo chemiluminescent assay. The class given is ADME, tissue-based, Primary hepatocyte. The conditions noted are these: dose 5-100 µM.

In series [7] the target is T3, CYP2C9. Briefly: Inhibition of CYP2C9 in HBV-infected human HepaRG cells at 50 uM using luciferin-H as substrate treated for 1 hr on day 5 post-infection followed by removal of media and supplemented with fresh media and further incubated for 3 days by P450-Glo chemiluminescent assay relative to control. The format is ADME, tissue-based. The conditions noted are these: probe luciferin-H.

Series [8] deals with T3, CYP2C9. Nature of the series: Inhibition of CYP2C9 in HBV-infected human HepaRG cells at 50 uM using luciferin-H as substrate treated for 1 hr on day 5 post-infection followed by removal of media and supplemented with fresh media and further incubated for 3 days then followed by treatment for 1 hr on day 8 post-infection followed by removal of media and supplemented with fresh media and further incubated for 3 days in presence of 10 mM ABT and measured on day 11 post-infection by P450-Glo chemiluminescent assay relative to control. The format is ADME, tissue-based. The conditions noted are these: probe luciferin-H, with ABT 10 mM.

Series [9] concerns the target T1, CYP1A2. Nature of the series: Inhibition of CYP1A2 in HBV-infected human HepaRG cells at 50 uM using luciferin-1A2 as substrate treated for 1 hr on day 5 post-infection followed by removal of media and supplemented with fresh media and further incubated for 3 days by P450-Glo chemiluminescent assay relative to control. The class given is ADME, tissue-based. The conditions noted are these: probe luciferin-1A2.

T3 sequence (P11712 whole entry): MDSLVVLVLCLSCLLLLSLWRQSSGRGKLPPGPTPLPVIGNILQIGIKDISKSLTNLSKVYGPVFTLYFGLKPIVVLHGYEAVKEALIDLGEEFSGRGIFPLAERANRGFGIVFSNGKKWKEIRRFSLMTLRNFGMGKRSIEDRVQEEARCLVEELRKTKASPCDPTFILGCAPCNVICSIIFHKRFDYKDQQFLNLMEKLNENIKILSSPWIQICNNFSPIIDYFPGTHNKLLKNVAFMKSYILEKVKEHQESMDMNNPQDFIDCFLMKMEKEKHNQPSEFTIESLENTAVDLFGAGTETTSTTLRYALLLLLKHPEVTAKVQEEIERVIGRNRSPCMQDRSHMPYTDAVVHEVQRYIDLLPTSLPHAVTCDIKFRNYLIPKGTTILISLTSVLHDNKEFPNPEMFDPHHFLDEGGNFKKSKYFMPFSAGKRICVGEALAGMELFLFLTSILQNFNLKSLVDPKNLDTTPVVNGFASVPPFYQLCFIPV
Chain of Cytochrome P450 3A4 (P08684 whole entry): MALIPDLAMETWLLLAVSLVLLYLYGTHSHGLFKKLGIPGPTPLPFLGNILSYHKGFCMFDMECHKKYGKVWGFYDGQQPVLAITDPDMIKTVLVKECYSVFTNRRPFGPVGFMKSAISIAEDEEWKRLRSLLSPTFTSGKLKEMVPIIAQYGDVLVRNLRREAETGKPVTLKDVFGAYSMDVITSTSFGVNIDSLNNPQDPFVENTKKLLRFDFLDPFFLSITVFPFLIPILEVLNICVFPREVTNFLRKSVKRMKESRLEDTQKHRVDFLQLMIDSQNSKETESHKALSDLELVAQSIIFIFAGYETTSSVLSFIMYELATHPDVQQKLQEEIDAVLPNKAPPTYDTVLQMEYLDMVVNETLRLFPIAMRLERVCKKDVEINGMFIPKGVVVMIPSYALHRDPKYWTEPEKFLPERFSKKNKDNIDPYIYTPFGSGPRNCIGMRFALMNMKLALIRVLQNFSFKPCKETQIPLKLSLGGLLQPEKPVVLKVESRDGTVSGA

As to `Nn1nnc2ccccc21`, the figures for the Activity with Hepatocyte and with Hepatitis B virus [2] were 10% and 20%, respectively. The inhibition at 1 h, 10000 µM stood at 88.8% at CYP1A2 [1] and 36.9% on CYP2C9 [3]. For the same compound, the “inhibition (INH)” value at Cytochrome P450 1A2 is reported as “Active”.
Take `CCCC(C(=O)OCCN(CC)CC)(c1ccccc1)c1ccccc1` [PROADIFEN]: the inhibition at 1 h, 50 µM against CYP1A2 [4] was determined as 30.8%; on CYP1A2 [5], 88.8%; at CYP2C9 [7], 21.4%; at CYP2C9 [8] it was 82.1%; against CYP1A2 [9] it was 2.2%. The Activity in the series with Hepatitis B virus [6] came out at 20%. The “inhibition (INH)” value against Cytochrome P450 3A4 is given as “Active”.
